Measurements as given in PubChem BioAssay AID192 (DTP/NCI, 2004).
Several values for one entry are separate records, joined by “and”; a condition that tells them apart may be missing. Equal values may be shown once. Toxic doses and inconclusive results are not listed.

Test system: BDF1 mice, B16 melanoma ip, median survival T/C
Assay: NCI In Vivo Anticancer Drug Screen. Data for tumor model B16 Melanoma (intraperitoneal) in B6D2F1 (BDF1) mice
Conditions: endpoint: median survival time, higher = longer survival
Method in brief: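 Compounds were tested in mice carrying transplantable tumors. Survival or tumor size was recorded, and each value is the treated-group measurement (T) divided by that of the vehicle-treated control group (C).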

In the case of `COc1cc(NS(C)(=O)=O)ccc1Nc1c2ccccc2nc2ccccc12`, the T/C (dose: 0.1 mg/kg/injection, schedule: Q01DX009 (ip), vehicle: saline) is reported as 102 % of control, the T/C (dose: 0.2 mg/kg/injection, schedule: Q01DX009 (ip), vehicle: saline) is reported as 118 % of control and the T/C (dose: 0.25 mg/kg/injection, schedule: Q01DX009 (ip), vehicle: other) is reported as 119 % of control. For the same compound, the T/C (dose: 0.5 mg/kg/injection, schedule: Q01DX009 (ip), vehicle: Klucel (hydroxypropylcellulose) (HPC)) was 183 % of control, the T/C (dose: 0.5 mg/kg/injection, schedule: Q01DX009 (ip), vehicle: lactic acid) was 150 % of control and the T/C (dose: 0.5 mg/kg/injection, schedule: Q01DX009 (ip), vehicle: other) was 120 % of control. The T/C (dose: 0.5 mg/kg/injection, schedule: Q03HX024 (oral), vehicle: lactic acid) was 100 % of control, the T/C (dose: 0.75 mg/kg/injection, schedule: Q01DX009 (ip), vehicle: other) was 113 % of control and the T/C (dose: 0.8 mg/kg/injection, schedule: Q01DX005 (iv), vehicle: lactic acid) was 100 % of control. For the same compound, the T/C (dose: 0.8 mg/kg/injection, schedule: Q01DX009 (ip), vehicle: Klucel (hydroxypropylcellulose) (HPC)) was 180 % of control, the T/C (dose: 0.8 mg/kg/injection, schedule: Q01DX009 (ip), vehicle: saline) was 177 % of control and the T/C (dose: 0.8 mg/kg/injection, schedule: Q04DX003 (iv), vehicle: lactic acid) was 102 % of control. The T/C (dose: 1.0 mg/kg/injection, schedule: Q01DX009 (ip), vehicle: Klucel (hydroxypropylcellulose) (HPC)) was 160 % of control and 166 % of control and 189 % of control, the T/C (dose: 1.0 mg/kg/injection, schedule: Q01DX009 (ip), vehicle: clinical formulation) was 183 % of control and the T/C (dose: 1.0 mg/kg/injection, schedule: Q01DX009 (ip), vehicle: lactic acid) was 202 % of control. For the same compound, the T/C (dose: 1.0 mg/kg/injection, schedule: Q01DX009 (oral), vehicle: lactic acid) was 96 % of control, the T/C (dose: 1.0 mg/kg/injection, schedule: Q01DX009 (oral), vehicle: other) was 106 % of control and 109 % of control and the T/C (dose: 1.0 mg/kg/injection, schedule: Q03HX024 (oral), vehicle: lactic acid) was 97 % of control. The T/C (dose: 1.0 mg/kg/injection, schedule: Q04DX003 (ip), vehicle: other) was 118 % of control, the T/C (dose: 1.25 mg/kg/injection, schedule: Q01DX009 (ip), vehicle: saline) was 177 % of control and the T/C (dose: 1.5 mg/kg/injection, schedule: Q01DX009 (ip), vehicle: other) was 114 % of control. The T/C (dose: 1.6 mg/kg/injection, schedule: Q01DX005 (iv), vehicle: lactic acid) was 110 % of control, the T/C (dose: 1.6 mg/kg/injection, schedule: Q04DX003 (iv), vehicle: lactic acid) was 92 % of control and the T/C (dose: 2.0 mg/kg/injection, schedule: Q01DX009 (ip), vehicle: Klucel (hydroxypropylcellulose) (HPC)) was 184 % of control. The T/C (dose: 2.0 mg/kg/injection, schedule: Q01DX009 (ip), vehicle: clinical formulation) was 212 % of control, the T/C (dose: 2.0 mg/kg/injection, schedule: Q01DX009 (ip), vehicle: lactic acid) was 218 % of control and the T/C (dose: 2.0 mg/kg/injection, schedule: Q01DX009 (ip), vehicle: other) was 158 % of control. The T/C (dose: 2.0 mg/kg/injection, schedule: Q01DX009 (oral), vehicle: lactic acid) was 98 % of control, the T/C (dose: 2.0 mg/kg/injection, schedule: Q01DX009 (oral), vehicle: other) was 105 % of control and 109 % of control and the T/C (dose: 2.0 mg/kg/injection, schedule: Q03HX016 (oral), vehicle: lactic acid) was 101 % of control. The T/C (dose: 2.0 mg/kg/injection, schedule: Q03HX024 (oral), vehicle: lactic acid) was 101 % of control, the T/C (dose: 2.0 mg/kg/injection, schedule: Q04DX003 (oral), vehicle: lactic acid) was 105 % of control and the T/C (dose: 2.0 mg/kg/injection, schedule: Q04DX003 (oral), vehicle: other) was 105 % of control and 96 % of control. The T/C (dose: 3.0 mg/kg/injection, schedule: Q01DX009 (ip), vehicle: Klucel (hydroxypropylcellulose) (HPC)) was 250 % of control, the T/C (dose: 3.12 mg/kg/injection, schedule: Q01DX009 (ip), vehicle: saline) was 113 % of control and the T/C (dose: 3.3 mg/kg/injection, schedule: Q01DX005 (iv), vehicle: lactic acid) was 155 % of control. For the same compound, the T/C (dose: 3.3 mg/kg/injection, schedule: Q04DX003 (iv), vehicle: lactic acid) was 105 % of control, the T/C (dose: 3.75 mg/kg/injection, schedule: Q04DX003 (ip), vehicle: clinical formulation) was 173 % of control and the T/C (dose: 4.0 mg/kg/injection, schedule: Q01DX009 (oral), vehicle: lactic acid) was 105 % of control. For the same compound, the T/C (dose: 4.0 mg/kg/injection, schedule: Q01DX009 (oral), vehicle: other) was 100 % of control and 96 % of control, the T/C (dose: 4.0 mg/kg/injection, schedule: Q04DX003 (oral), vehicle: lactic acid) was 110 % of control and the T/C (dose: 4.0 mg/kg/injection, schedule: Q04DX003 (oral), vehicle: other) was 97 % of control and 105 % of control and 103 % of control. For the same compound, the T/C (dose: 5.0 mg/kg/injection, schedule: Q01DX009 (ip), vehicle: Klucel (hydroxypropylcellulose) (HPC)) was 223 % of control, the T/C (dose: 6.0 mg/kg/injection, schedule: Q01DX009 (ip), vehicle: other) was 72 % of control and the T/C (dose: 6.25 mg/kg/injection, schedule: Q01DX009 (ip), vehicle: saline) was 124 % of control. For the same compound, the T/C (dose: 6.5 mg/kg/injection, schedule: Q01DX005 (iv), vehicle: lactic acid) was 112 % of control, the T/C (dose: 6.5 mg/kg/injection, schedule: Q04DX003 (iv), vehicle: lactic acid) was 107 % of control and the T/C (dose: 7.5 mg/kg/injection, schedule: Q04DX003 (ip), vehicle: clinical formulation) was 193 % of control. For the same compound, the T/C (dose: 8.0 mg/kg/injection, schedule: Q01DX001 (ip), vehicle: lactic acid) was 151 % of control, the T/C (dose: 8.0 mg/kg/injection, schedule: Q01DX001 (oral), vehicle: lactic acid) was 110 % of control and the T/C (dose: 8.0 mg/kg/injection, schedule: Q01DX009 (oral), vehicle: other) was 105 % of control and 103 % of control. For the same compound, the T/C (dose: 8.0 mg/kg/injection, schedule: Q04DX003 (ip), vehicle: other) was 188 % of control, the T/C (dose: 8.0 mg/kg/injection, schedule: Q04DX003 (oral), vehicle: lactic acid) was 111 % of control and the T/C (dose: 8.0 mg/kg/injection, schedule: Q04DX003 (oral), vehicle: other) was 105 % of control [middle of 4 runs]. For the same compound, the T/C (dose: 8.0 mg/kg/injection, schedule: Q08DX002 (oral), vehicle: lactic acid) was 107 % of control, the T/C (dose: 12.5 mg/kg/injection, schedule: Q01DX009 (ip), vehicle: saline) was 163 % of control and the T/C (dose: 12.5 mg/kg/injection, schedule: Q04DX003 (ip), vehicle: Klucel (hydroxypropylcellulose) (HPC)) was 166 % of control. The T/C (dose: 13.0 mg/kg/injection, schedule: Q04DX003 (iv), vehicle: lactic acid) was 120 % of control, the T/C (dose: 15.0 mg/kg/injection, schedule: Q04DX003 (ip), vehicle: clinical formulation) was 173 % of control and the T/C (dose: 16.0 mg/kg/injection, schedule: Q01DX001 (oral), vehicle: lactic acid) was 110 % of control. The T/C (dose: 16.0 mg/kg/injection, schedule: Q04DX003 (ip), vehicle: other) was 152 % of control, the T/C (dose: 16.0 mg/kg/injection, schedule: Q04DX003 (oral), vehicle: other) was 97 % of control and 113 % of control and 110 % of control and the T/C (dose: 16.0 mg/kg/injection, schedule: Q08DX002 (oral), vehicle: lactic acid) was 108 % of control. For the same compound, the T/C (dose: 25.0 mg/kg/injection, schedule: Q01DX001 (ip), vehicle: saline sonified) was 166 % of control, the T/C (dose: 25.0 mg/kg/injection, schedule: Q01DX001 (ip), vehicle: saline) was 160 % of control and the T/C (dose: 25.0 mg/kg/injection, schedule: Q04DX003 (ip), vehicle: Klucel (hydroxypropylcellulose) (HPC)) was 285 % of control. For the same compound, the T/C (dose: 26.0 mg/kg/injection, schedule: Q04DX003 (iv), vehicle: lactic acid) was 120 % of control, the T/C (dose: 32.0 mg/kg/injection, schedule: Q01DX001 (oral), vehicle: lactic acid) was 116 % of control and the T/C (dose: 32.0 mg/kg/injection, schedule: Q04DX003 (oral), vehicle: other) was 121 % of control [middle of 4 runs]. The T/C (dose: 32.0 mg/kg/injection, schedule: Q08DX002 (oral), vehicle: lactic acid) was 115 % of control, the T/C (dose: 50.0 mg/kg/injection, schedule: Q01DX001 (ip), vehicle: saline sonified) was 102 % of control and the T/C (dose: 64.0 mg/kg/injection, schedule: Q04DX003 (oral), vehicle: other) was 110 % of control. For the same compound, the T/C (dose: 100.0 mg/kg/injection, schedule: Q01DX001 (ip), vehicle: saline sonified) was 169 % of control.
